Measured values: EPA's ToxRefDB 2

What was measured:
[1] = tested on: rat; details: Prenatal developmental toxicity study, sprague dawley, Oral, Gavage/Intubation, dose end: 20 GD
[2] = tested on: hamster; details: Subchronic oral toxicity in rodents, golden syrian, Feed, dose end: 90 day, group: systemic, systemic / in life observation / body weight / body weight + systemic / in life observation / body weight / body weight gain + systemic / in…
[3] = tested on: rat; details: Subchronic oral toxicity in rodents, wistar, Feed, dose end: 90 day, group: systemic, systemic / clinical chemistry / cholesterol / cholesterol + systemic / pathology microscopic / kidney / degeneration + systemic / pathology …
[4] = tested on: dog; details: Chronic toxicity, beagle, Oral, Capsule, dose end: 55 week, group: systemic
[5] = tested on: dog; details: Subchronic oral toxicity in nonrodent, beagle, Capsule, dose end: 13 week, group: systemic, systemic / clinical chemistry / alanine aminotransferase (alt/sgpt) / alanine aminotransferase (alt/sgpt) + systemic / clinical chemistry / …
[6] = tested on: rat; details: Combined chronic toxicity/carcinogenicity, sprague dawley, Oral, Feed, dose end: 104 week, group: systemic
[7] = tested on: rat; details: Combined chronic toxicity/carcinogenicity, wistar, Oral, Feed, dose end: 106 week, group: systemic
[8] = tested on: rat; details: Prenatal developmental toxicity study, sprague dawley, Oral, Gavage/Intubation, dose end: 20 GD; remark: listed apart in the source
[9] = tested on: rabbit; details: Prenatal developmental toxicity study, new zealand white, Oral, Gavage/Intubation, dose end: 28 GD
[10] = tested on: rabbit; details: Prenatal developmental toxicity study, new zealand white, Oral, Gavage/Intubation, dose end: 20 GD
[11] = tested on: rat; details: Multigenerational reproductive toxicity study, wistar, Oral, Feed, dose end: 2 generation
[12] = tested on: rat; details: Developmental neurotoxicity study; sprague dawley; Oral; Water; dose end: 42 PND; group: cannot be grouped; developmental / developmental landmark / eye opening / eye opening + systemic / in life observation / body weight / offspring (pup) weight
[13] = tested on: rat; details: Developmental neurotoxicity study; sprague dawley; Oral; Gavage/Intubation; dose end: 70 PND; group: cannot be grouped; reproductive / reproductive performance / gestational length / gestational length + systemic / in life observation / body weight / body …
[14] = tested on: rat; details: Developmental neurotoxicity study; fischer; Oral; Water; dose end: 90 PND; group: cannot be grouped; developmental / developmental landmark / incisor eruption / incisor eruption + systemic / in life observation / body weight / offspring (pup…
[15] = tested on: rat; details: Combined chronic toxicity/carcinogenicity, sprague dawley, Dermal, Topical, dose end: 101 week, group: systemic
[16] = group: developmental, developmental / developmental malformation / bone / incomplete ossification
[17] = group: maternal, reproductive / reproductive performance / postimplantation loss / postimplantation loss + systemic / in life observation / body weight / …
[18] = systemic / pathology microscopic / adrenal gland / vacuolization + systemic / clinical chemistry / [other] / [other] + systemic / clinical …
[19] = systemic / in life observation / clinical signs / fur (altered appearance)
[20] = systemic / in life observation / body weight / body weight gain
[21] = group: developmental, systemic / in life observation / body weight / fetal weight + developmental / developmental malformation / bone / absent + developmental / …
[22] = group: maternal, reproductive / reproductive performance / implantations / implantations
[23] = group: developmental, developmental / developmental malformation / bone / incomplete ossification + developmental / developmental malformation / eye / [other] + …
[24] = group: maternal, reproductive / reproductive performance / aborted / aborted + reproductive / reproductive performance / postimplantation loss / …
[25] = group: developmental, developmental / developmental malformation / bone / full supernumerary + developmental / developmental malformation / bone / incomplete …
[26] = group: maternal, reproductive / reproductive performance / aborted / aborted + systemic / in life observation / body weight / body weight gain + systemic / …
[27] = group: maternal, reproductive / offspring survival early / litter size / litter size
[28] = group: parental, systemic / organ weight / epididymis / absolute + systemic / organ weight / epididymis / relative to body weight
[29] = group: parental, systemic / organ weight / epididymis / absolute + systemic / organ weight / epididymis / relative to body weight + systemic / organ weight…
[30] = group: reproductive, reproductive / reproductive performance / gestational length / gestational length + reproductive / reproductive performance / implantations…
[31] = systemic / pathology microscopic / mammary gland / fibroadenoma + systemic / in life observation / body weight / body weight + systemic / in…
[32] = systemic / pathology microscopic / mammary gland / fibroadenoma + systemic / pathology microscopic / pituitary gland / acidophil adenoma + …

Q: For `CCCCOC(=O)C(C)Oc1ccc(Oc2ccc(C(F)(F)F)cn2)cc1` (stereo not drawn) [Fluazifop-butyl], which LEL [1, 16] is on record?
A: Its LEL is 10 mg/kg/day.

Q: And the LOAEL [1, 16]?
A: Its LOAEL is 10 mg/kg/day.

Q: And the NEL [1, 16]?
A: The NEL was under 10 mg/kg/day.

Q: And the NOAEL [1, 16]?
A: Its NOAEL is under 10 mg/kg/day.

Q: What about the LEL [1, 17] of the same molecule?
A: Its LEL is 200 mg/kg/day.

Q: And the LOAEL [1, 17]?
A: The LOAEL was over 200 mg/kg/day.

Q: What about the NEL [1, 17] of the same molecule?
A: The NEL was 50 mg/kg/day.

Q: And the NOAEL [1, 17]?
A: Its NOAEL is at least 200 mg/kg/day.

Q: What about the LEL [2] of the same molecule?
A: The LEL was 292 mg/kg/day.

Q: What about the LOAEL [2] of the same molecule?
A: The LOAEL was 292 mg/kg/day.

Q: And the NEL [2]?
A: Its NEL is 78.3 mg/kg/day.

Q: What about the NOAEL [2] of the same molecule?
A: The NOAEL was 78.3 mg/kg/day.

Q: And the LEL [3]?
A: Its LEL is 7.1 mg/kg/day.

Q: And the LOAEL [3]?
A: The LOAEL was 7.1 mg/kg/day.

Q: And the NEL [3]?
A: The NEL was 0.7 mg/kg/day.

Q: What about the NOAEL [3] of the same molecule?
A: The NOAEL was 0.7 mg/kg/day.

Q: And the NEL [4, 18]?
A: Its NEL is 5 mg/kg/day.

Q: And the NOAEL [4, 18]?
A: Its NOAEL is 5 mg/kg/day.

Q: And the LOAEL ([4]; systemic / pathology microscopic / adrenal gland / vacuolization + systemic / pathology microscopic / thymus / involution)?
A: Its LOAEL is 25 mg/kg/day.

Q: And the LEL ([4]; systemic / pathology microscopic / adrenal gland / vacuolization + systemic / pathology microscopic / thymus / involution + systemic / …)?
A: The LEL was 25 mg/kg/day.

Q: What about the LEL [5] of the same molecule?
A: The LEL was 250 mg/kg/day.

Q: What about the LOAEL [5] of the same molecule?
A: The LOAEL was 250 mg/kg/day.

Q: And the NEL [5]?
A: Its NEL is 25 mg/kg/day.

Q: What about the NOAEL [5] of the same molecule?
A: The NOAEL was 25 mg/kg/day.

Q: What about the LEL [6, 19] of the same molecule?
A: Its LEL is 0.1 mg/kg/day.

Q: What about the NEL [6, 19] of the same molecule?
A: Its NEL is under 0.1 mg/kg/day.

Q: What about the LOAEL ([6]; systemic / in life observation / mortality / mortality) of the same molecule?
A: The LOAEL was 3 mg/kg/day.

Q: What about the NOAEL ([6]; systemic / in life observation / mortality / mortality + systemic / in life observation / clinical signs / fur (altered appearance) + …) of the same molecule?
A: Its NOAEL is 1 mg/kg/day.

Q: And the LEL [7, 20]?
A: Its LEL is 0.127 mg/kg/day.

Q: What about the NEL [7, 20] of the same molecule?
A: The NEL was under 0.127 mg/kg/day.

Q: What about the LOAEL ([7]; systemic / pathology microscopic / kidney / nephropathy + systemic / in life observation / mortality / mortality) of the same molecule?
A: The LOAEL was 4.15 mg/kg/day.

Q: What about the NOAEL ([7]; systemic / pathology microscopic / kidney / nephropathy + systemic / organ weight / kidney / absolute + systemic / organ weight / kidney / …) of the same molecule?
A: The NOAEL was 0.51 mg/kg/day.

Q: What about the LOAEL ([8]; group: developmental, systemic / in life observation / body weight / fetal weight) of the same molecule?
A: The LOAEL was 5 mg/kg/day.

Q: What about the LEL [8, 21] of the same molecule?
A: The LEL was 5 mg/kg/day.

Q: What about the NEL [8, 21] of the same molecule?
A: Its NEL is 1 mg/kg/day.

Q: What about the NOAEL [8, 21] of the same molecule?
A: The NOAEL was 1 mg/kg/day.

Q: And the LEL [8, 22]?
A: The LEL was 10 mg/kg/day.

Q: And the LOAEL [8, 22]?
A: The LOAEL was over 200 mg/kg/day.

Q: What about the NEL [8, 22] of the same molecule?
A: Its NEL is 5 mg/kg/day.

Q: What about the NOAEL [8, 22] of the same molecule?
A: The NOAEL was at least 200 mg/kg/day.

Q: And the LEL [9, 23]?
A: Its LEL is 90 mg/kg/day.

Q: What about the LOAEL [9, 23] of the same molecule?
A: The LOAEL was 90 mg/kg/day.

Q: And the NEL [9, 23]?
A: The NEL was 30 mg/kg/day.

Q: And the NOAEL [9, 23]?
A: Its NOAEL is 30 mg/kg/day.

Q: And the LEL [9, 24]?
A: The LEL was 90 mg/kg/day.

Q: And the LOAEL [9, 24]?
A: Its LOAEL is 90 mg/kg/day.

Q: What about the NEL [9, 24] of the same molecule?
A: The NEL was 30 mg/kg/day.

Q: And the NOAEL [9, 24]?
A: Its NOAEL is 30 mg/kg/day.

Q: And the LEL [10, 25]?
A: Its LEL is 50 mg/kg/day.

Q: And the LOAEL [10, 25]?
A: The LOAEL was 50 mg/kg/day.

Q: And the NEL [10, 25]?
A: The NEL was 10 mg/kg/day.

Q: And the NOAEL [10, 25]?
A: The NOAEL was 10 mg/kg/day.

Q: And the LEL [10, 26]?
A: Its LEL is 50 mg/kg/day.

Q: And the LOAEL [10, 26]?
A: Its LOAEL is 50 mg/kg/day.

Q: What about the NEL [10, 26] of the same molecule?
A: The NEL was 10 mg/kg/day.

Q: What about the NOAEL [10, 26] of the same molecule?
A: The NOAEL was 10 mg/kg/day.

Q: And the LEL [11, 27]?
A: The LEL was 17.5 mg/kg/day.

Q: What about the LOAEL [11, 27] of the same molecule?
A: Its LOAEL is 17.5 mg/kg/day.

Q: And the NEL [11, 27]?
A: Its NEL is 5.8 mg/kg/day.

Q: What about the NOAEL [11, 27] of the same molecule?
A: Its NOAEL is 5.8 mg/kg/day.

Q: And the LOAEL ([11]; group: offspring, reproductive / offspring survival early / litter size / litter size)?
A: Its LOAEL is 17.5 mg/kg/day.

Q: And the NOAEL ([11]; group: offspring, reproductive / offspring survival early / litter size / litter size + systemic / pathology microscopic / kidney / hydronephrosis)?
A: Its NOAEL is 5.8 mg/kg/day.

Q: And the LEL ([11]; group: offspring, systemic / pathology microscopic / kidney / hydronephrosis)?
A: The LEL was 7.1 mg/kg/day.

Q: And the NEL ([11]; group: offspring, systemic / pathology microscopic / kidney / hydronephrosis + developmental / offspring survival late / viability index / viability index + …)?
A: Its NEL is 0.88 mg/kg/day.

Q: And the LEL [11, 28]?
A: The LEL was 0.74 mg/kg/day.

Q: And the NEL [11, 28]?
A: Its NEL is under 0.74 mg/kg/day.

Q: What about the LOAEL [11, 29] of the same molecule?
A: Its LOAEL is 5.8 mg/kg/day.

Q: And the NOAEL [11, 29]?
A: Its NOAEL is 0.74 mg/kg/day.

Q: And the NEL ([11]; group: reproductive, reproductive / offspring survival early / birth index / live birth index + reproductive / reproductive performance / fertility / fertility…)?
A: The NEL was 0.88 mg/kg/day.

Q: And the LEL ([11]; group: reproductive, reproductive / reproductive performance / gestational length / gestational length)?
A: The LEL was 7.1 mg/kg/day.

Q: What about the LOAEL [11, 30] of the same molecule?
A: The LOAEL was over 21.7 mg/kg/day.

Q: And the NOAEL [11, 30]?
A: The NOAEL was at least 21.7 mg/kg/day.

Q: With `Cn1cc[nH]c1=S` [Methimazole] as the molecule, how does the LEL [12] read?
A: Its LEL is 7 mg/kg/day.

Q: What about the LOAEL [12] of the same molecule?
A: Its LOAEL is over 7 mg/kg/day.

Q: And the NEL [12]?
A: Its NEL is under 7 mg/kg/day.

Q: And the NOAEL [12]?
A: Its NOAEL is at least 7 mg/kg/day.

Q: What about the LEL [13] of the same molecule?
A: Its LEL is 20 mg/kg/day.

Q: And the LOAEL [13]?
A: The LOAEL was over 20 mg/kg/day.

Q: And the NEL [13]?
A: The NEL was under 20 mg/kg/day.

Q: And the NOAEL [13]?
A: Its NOAEL is at least 20 mg/kg/day.

Q: What about the LEL [14] of the same molecule?
A: Its LEL is 1.5 mg/kg/day.

Q: And the LOAEL [14]?
A: Its LOAEL is over 15 mg/kg/day.

Q: And the NEL [14]?
A: Its NEL is under 1.5 mg/kg/day.

Q: What about the NOAEL [14] of the same molecule?
A: Its NOAEL is at least 15 mg/kg/day.

Q: For `CC/C(=C(\c1ccc(O)cc1)c1ccc(OCCN(C)C)cc1)c1ccccc1` [4-Hydroxytamoxifen], which LEL [15, 31] is on record?
A: The LEL was 0.02 mg/kg/day.

Q: And the NEL [15, 31]?
A: Its NEL is under 0.02 mg/kg/day.

Q: What about the LOAEL [15, 32] of the same molecule?
A: Its LOAEL is over 1 mg/kg/day.

Q: What about the NOAEL [15, 32] of the same molecule?
A: Its NOAEL is at least 1 mg/kg/day.
